Measurements published in patent US20070015828A1 (Wyeth, priority 2005, published 2007).

Key:
Type in all cases: physicochemical
Hygroscopicity = assay: Hygroscopicity
pH-Solubility = conditions: free base
[1] = Solution Stability in aqueous solutions; conditions: room temperature, all aqueous solutions (pH 1.6-10.5)
[2] = Octanol/Water Partitioning Coefficient; conditions: @ pH 6

## CN(C)CC(c1ccc(O)cc1)[C@]1(O)CC[C@@H](O)CC1.O=C(O)CCC(=O)O (stereo partly drawn) [Succinate salt, 1-[2-dimethylamino-1-(4-phenol)ethyl]-cis-1,4-cyclohexandiol succinate]
Hygroscopicity
  Hygroscopicity: hygroscopic

## COC1CCC(O)(C(CN(C)C)c2ccc(O)cc2)CC1 (stereo not drawn) [4-[2-dimethylamino-1-(cis-1-hydroxy-4-methoxy-cyclohexyl)-ethyl]-phenol]
Hygroscopicity
  Hygroscopicity: Non-hygroscopic
Hygroscopicity; @ 60% RH
  Hygroscopicity, weight gain: 0.44%
Hygroscopicity; @ 90% RH, weight gain was lost when returned to 10% RH or 0% RH
  Hygroscopicity, weight gain: 60% RH, 1.2% weight gain @ 90% RH,
pH-Solubility; Final pH 1.60
  pH-Solubility: Final pH 1.60 >10.71 mg/ml
pH-Solubility; Final pH 7.62
  pH-Solubility: Final pH 7.62 >10.00 mg/ml
pH-Solubility; Final pH 8.21
  pH-Solubility: Final pH 8.21 >10.00 mg/ml
pH-Solubility; Final pH 9.00
  pH-Solubility: Final pH 9.00 7.65 mg/ml
pH-Solubility; Final pH 10.5
  pH-Solubility: Final pH 10.5 7.65 mg/ml
[1]
  Solution Stability, time stable: The compound was stable for at least 72 hours
[2]
  Octanol/Water Partitioning Coefficient Coct/Caq: Coct/Caq @ pH 6 = 6.857
